Patent US20240025862A1, “SUBSTITUTED N-PHENYLURACILS AND SALTS THEREOF, AND USE THEREOF AS HERBICIDAL ACTIVE SUBSTANCES” (Bayer Aktiengesellschaft, priority 2020, published 2024)

Columns and labels:
Format in all cases: in vivo
[1] = test system: Abutilon theophrasti (ABUTH); experiment: Post-emergence herbicidal action, greenhouse pot test; details: rated visually after about 3 weeks vs untreated controls, 100% = plants have died
Method in brief: (§1)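 Greenhouse-grown weeds in sandy loam were sprayed post-emergence at the one-leaf stage, 2–3 weeks after sowing. Compounds were formulated as WP or EC in water with 0.5% additive at 600 l/ha, at rates of 20 g/ha or less. Visual rating after about 3 weeks used a scale from 0% (like untreated control) to 100% (plants dead).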

[2] = test system: Amaranthus retroflexus (AMARE); experiment: as above; details: rated visually after about 3 weeks vs untreated controls, 100% = plants have died
Method in brief: as §1

[3] = test system: Pharbitis purpurea (PHBPU); experiment: as above
Method in brief: as §1

[4] = test system: Polygonum convolvulus (POLCO); experiment: as above
Method in brief: as §1

Veronica persica (VERPE) = experiment: as above
Method in brief: as §1

Viola tricolor (VIOTR) = experiment: as above
Method in brief: as §1

[5] = test system: Alopecurus myosuroides (ALOMY); experiment: Post-emergence herbicidal action, greenhouse pot test (also comparative test C); details: rated visually after about 3 weeks vs untreated controls, 100% = plants have died
Method in brief: (§2)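 Greenhouse pot plants in sandy loam were sprayed post-emergence at the one-leaf stage (2–3 weeks after sowing) with WP or EC formulations plus 0.5% additive at 600 l/ha water. Activity was rated visually after about 3 weeks versus untreated controls (100% = dead, 0% = like control); rates were 20 g/ha or less, and 5 g/ha or less in the comparative test.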

[6] = test system: Echinochloa crus-galli (ECHCG); experiment: as above
Method in brief: as §2

[7] = test system: Matricaria inodora (MATIN); experiment: as above
Method in brief: as §2

Setaria viridis (SETVI) = experiment: as above; details: for Post-emergence action against SETVI: 20 g/ha
Method in brief: as §2

[8] = test system: Triticum aestivum (TRZAS); experiment: Post-emergence crop plant compatibility, greenhouse pot test; details: vs untreated controls
Method in brief: (§3)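 Greenhouse-grown crop plants sprayed post-emergence at the one-leaf stage with WP or EC formulations plus 0.5% additive, at 600 l/ha water. Damage rated visually after about 3 weeks versus untreated controls (0% = like control, 100% = dead); suffixes a/b/c denote different dosages.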

Zea mays (ZEAMX) = experiment: as above; details: 1.25 g/ha, vs untreated controls
Method in brief: as §3

Oryza sativa (ORYSA) = experiment: Post-emergence crop plant compatibility, greenhouse pot test (also comparative test C); details: vs untreated controls
Method in brief: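 Rice and other crops sprayed post-emergence at one-leaf stage (2–3 weeks after sowing) with WP or EC formulations plus 0.5% additive at 600 l/ha water. Visual rating about 3 weeks later versus untreated controls (100% = dead, 0% = like control); suffixes a–c denote different doses.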

Cn1c(C(F)(F)F)cc(=O)n(-c2cc(Oc3cc(F)ccc3OCC(=O)OCC#N)c(Cl)cc2F)c1=O [I.23-176]
90%: Post-emergence action against PHBPU in % ([3]; dosage 1.25 g/ha) | Post-emergence action against PHBPU in % ([3]; dosage 5 g/ha) | Post-emergence action against VIOTR (Viola tricolor (VIOTR); 1.25 g/ha)
80%: Post-emergence action at 1.25 g/ha against ABUTH in % [1] | Post-emergence action against MATIN in % ([7]; dosage 20 g/ha)
0%: Post-emergence action against ORYSA (crop plant compatibility) (Oryza sativa (ORYSA); 1.25 g/ha)
100%: Post-emergence action at 5 g/ha against ABUTH in % [1] | Post-emergence action at 20 g/ha against ABUTH in % [1] | Post-emergence action at 1.25 g/ha against AMARE in % [2] | Post-emergence action at 5 g/ha against AMARE in % [2] | Post-emergence action at 20 g/ha against AMARE in % [2] | Post-emergence action against PHBPU in % ([3]; dosage 20 g/ha) | Post-emergence action against POLCO in % ([4]; dosage 5 g/ha) | Post-emergence action against POLCO in % ([4]; dosage 20 g/ha) | Post-emergence action against VERPE (Veronica persica (VERPE); 1.25 g/ha) | Post-emergence action against VERPE (Veronica persica (VERPE); 5 g/ha) | Post-emergence action against VERPE (Veronica persica (VERPE); 20 g/ha) | Post-emergence action against VIOTR (Viola tricolor (VIOTR); 5 g/ha) | Post-emergence action against VIOTR (Viola tricolor (VIOTR); 20 g/ha) | Post-emergence action at 20 g/ha against ALOMY in % [5] | Post-emergence action against ECHCG in % ([6]; dosage 5 g/ha) | Post-emergence action against ECHCG in % ([6]; dosage 20 g/ha) | Post-emergence action against SETVI (Setaria viridis (SETVI)) | Post-emergence action against SETVI in % (Setaria viridis (SETVI); dosage 1.25 g/ha) | Post-emergence action against SETVI in % (Setaria viridis (SETVI); dosage 5 g/ha)
20%: Post-emergence action against ZEAMX (crop plant compatibility) (Zea mays (ZEAMX)) | Post-emergence action against ORYSA (crop plant compatibility) (Oryza sativa (ORYSA); 5 g/ha)
10%: Post-emergence action against TRZAS (crop plant compatibility) ([8]; 1.25 g/ha)

Cn1c(C(F)(F)F)cc(=O)n(-c2cc(Oc3ccccc3OCC(=O)OCCC[N+](=O)[O-])c(Cl)cc2F)c1=O [I.7-339]
90%: Post-emergence action at 1.25 g/ha against ABUTH in % [1]
100%: Post-emergence action at 5 g/ha against ABUTH in % [1] | Post-emergence action at 20 g/ha against ABUTH in % [1] | Post-emergence action at 1.25 g/ha against AMARE in % [2] | Post-emergence action at 5 g/ha against AMARE in % [2] | Post-emergence action at 20 g/ha against AMARE in % [2] | Post-emergence action against PHBPU in % ([3]; dosage 1.25 g/ha) | Post-emergence action against PHBPU in % ([3]; dosage 5 g/ha) | Post-emergence action against PHBPU in % ([3]; dosage 20 g/ha) | Post-emergence action against POLCO in % ([4]; dosage 5 g/ha) | Post-emergence action against POLCO in % ([4]; dosage 20 g/ha) | Post-emergence action against VERPE (Veronica persica (VERPE); 5 g/ha) | Post-emergence action against VERPE (Veronica persica (VERPE); 20 g/ha) | Post-emergence action against VIOTR (Viola tricolor (VIOTR); 1.25 g/ha) | Post-emergence action against VIOTR (Viola tricolor (VIOTR); 5 g/ha) | Post-emergence action against VIOTR (Viola tricolor (VIOTR); 20 g/ha) | Post-emergence action at 5 g/ha against ALOMY in % ([5]; 5 g/ha) | Post-emergence action at 20 g/ha against ALOMY in % [5] | Post-emergence action against ECHCG in % ([6]; dosage 5 g/ha) | Post-emergence action against ECHCG in % ([6]; dosage 20 g/ha) | Post-emergence action against MATIN in % ([7]; dosage 5 g/ha) | Post-emergence action against MATIN in % ([7]; dosage 20 g/ha) | Post-emergence action against SETVI (Setaria viridis (SETVI)) | Post-emergence action against SETVI in % (Setaria viridis (SETVI); dosage 1.25 g/ha) | Post-emergence action against SETVI in % (Setaria viridis (SETVI); dosage 5 g/ha)
10%: Post-emergence action against ORYSA (crop plant compatibility) (Oryza sativa (ORYSA); 5 g/ha)
20%: Post-emergence action against TRZAS (crop plant compatibility) ([8]; 5 g/ha) | Post-emergence action against ZEAMX (crop plant compatibility) (Zea mays (ZEAMX))
80%: Post-emergence action against VERPE (Veronica persica (VERPE); 1.25 g/ha)
0%: Post-emergence action against TRZAS (crop plant compatibility) ([8]; 1.25 g/ha) | Post-emergence action against ORYSA (crop plant compatibility) (Oryza sativa (ORYSA); 1.25 g/ha)
